In patent US5162330A, “Dynemicin C antibiotic, its triacetyl derivative and pharmaceutical composition containing same” (Bristol-Myers Squibb Co., priority 1990, dated 1992):
Converted amounts (≈) assume the structure as drawn.

Tests used:
M. luteus PCI 1001 = assay: In vitro antibacterial MIC; format: cell-based; conditions: Micrococcus luteus, PCI1001, pH 7, nutrient agar pH7, 32° C., 18 hours
Experimental: (§1) The minimum inhibitory concentration (MIC) was determined by a two-fold serial tube dilution method using nutrient agar (pH7, Difco containing 10^5 cfu/ml).

P. vulgaris IPM-13 = assay: In vitro antibacterial MIC; format: cell-based; conditions: Proteus vulgaris, IPM13, 18 h, pH 7
Experimental: as §1

P. cepecia A21213 = assay: In vitro antibacterial MIC; format: cell-based; conditions: 18 h, pH 7
Experimental: as §1

P. rettgeri IPM-14 = assay: In vitro antibacterial MIC; format: cell-based; conditions: Providencia rettgeri, IPM14, 18 h, pH 7
Experimental: as §1

P. mirabilis IFO 3849 = assay: In vitro antibacterial MIC; format: cell-based; conditions: Proteus mirabilis, IFO3849, 18 h, pH 7
Experimental: as §1

M. morganii I510 = assay: In vitro antibacterial MIC; format: cell-based; conditions: Morganella morganii, I510, 18 h, pH 7
Experimental: as §1

X. maltophilia GN12873 = assay: In vitro antibacterial MIC; format: cell-based; conditions: Stenotrophomonas maltophilia, pH 7, nutrient agar pH7, 32° C., 18 hours
Experimental: as §1

P. aeruginosa IPM-9 = assay: In vitro antibacterial MIC; format: cell-based; conditions: Pseudomonas aeruginosa, IPM9, 18 h, pH 7
Experimental: as §1

P. cepecia No. 651 = assay: In vitro antibacterial MIC; format: cell-based; conditions: 18 h, pH 7
Experimental: as §1

P. aeruginosa A20599 = assay: In vitro antibacterial MIC; format: cell-based; conditions: Pseudomonas aeruginosa, A20599, 18 h, pH 7
Experimental: as §1

S. aureus IPM-24 (MRSA) = assay: In vitro antibacterial MIC; format: cell-based; conditions: Staphylococcus aureus, 18 h, pH 7
Experimental: as §1

P. aeruginosa IPM-8 = assay: In vitro antibacterial MIC; format: cell-based; conditions: Pseudomonas aeruginosa, IPM8, 18 h, pH 7
Experimental: as §1

K. pneumoniae PCI 602 = assay: In vitro antibacterial MIC; format: cell-based; conditions: Klebsiella pneumoniae, PCI602, 18 h, pH 7
Experimental: as §1

S. epidermidis 11-1230 = assay: In vitro antibacterial MIC; format: cell-based; conditions: Staphylococcus epidermidis, 111230, 18 h, pH 7
Experimental: as §1

S. marcescens IPM-16 = assay: In vitro antibacterial MIC; format: cell-based; conditions: Serratia marcescens, IPM16, 18 h, pH 7
Experimental: as §1

E. coli Juhl A15119 = assay: In vitro antibacterial MIC; format: cell-based; conditions: Escherichia coli, JUHLA15119, 18 h, pH 7
Experimental: as §1

X. maltophilia No. 661 = assay: In vitro antibacterial MIC; format: cell-based; conditions: Stenotrophomonas maltophilia, pH 7, nutrient agar pH7, 32° C., 18 hours
Experimental: as §1

E. faecalis A9808 = assay: In vitro antibacterial MIC; format: cell-based; conditions: Enterococcus faecalis, A9808, 18 h, pH 7
Experimental: as §1

P. aeruginosa A9843A = assay: In vitro antibacterial MIC; format: cell-based; conditions: Pseudomonas aeruginosa, 18 h, pH 7
Experimental: as §1

S. aureus smith = assay: In vitro antibacterial MIC; format: cell-based; conditions: Staphylococcus aureus, 18 h, pH 7
Experimental: as §1

S. marcescens IPM-15 = assay: In vitro antibacterial MIC; format: cell-based; conditions: Serratia marcescens, IPM15, 18 h, pH 7
Experimental: as §1

E. faecium A24817 = assay: In vitro antibacterial MIC; format: cell-based; conditions: Enterococcus faecium, pH 7, nutrient agar pH7, 32° C., 18 hours
Experimental: as §1

S. aureus A15036 (MRSA) = assay: In vitro antibacterial MIC; format: cell-based; conditions: Staphylococcus aureus, 18 h, pH 7
Experimental: as §1

P. aeruginosa KKA19 = assay: In vitro antibacterial MIC; format: cell-based; conditions: Pseudomonas aeruginosa, pH 7, nutrient agar pH7, 32° C., 18 hours
Experimental: as §1

E. coli 255 = assay: In vitro antibacterial MIC; format: cell-based; conditions: Escherichia coli, 255, 18 h, pH 7
Experimental: as §1

E. cloacae IPM-12 = assay: In vitro antibacterial MIC; format: cell-based; conditions: Enterobacter cloacae, IPM12, 18 h, pH 7
Experimental: as §1

[1] = test system: Pseudomonas aeruginosa species; assay: In vitro antibacterial activity, Pseudomonas aeruginosa as a group; format: cell-based; conditions: in words
Experimental: as §1

gram-negative organisms = assay: In vitro antibacterial activity, gram-negative organisms as a group; format: cell-based; conditions: other gram-negatives than P. aeruginosa, except Enterobacter cloacae IPM-12 and Serratia marcescens IPM-16
Experimental: as §1

[2] = test system: murine and human tumor cell lines; assay: In vitro cytotoxicity, tumor cell lines as a group; format: cell-based; conditions: in words
Experimental: (§2) Dynemicin C and its triacetate derivative were tested for in vitro cytotoxicity against murine and human tumor cell lines. Dynemicin A and its triacetate derivative were used as reference compounds. B16-F10 (murine melanoma) cells were grown to the logarithmic phase in enriched Eagle minimum essential medium (MEM) supplemented with fetal calf serum (FCS, 10%) and kanamycin (60 mcg/ml) and HCT-116 (human colon carcinoma) cells in Maccoy's 5A medium supplemented with FCS (10%), penicillin (100 μ/ml) and streptomycin (100 mcg/ml), and were harvested and inoculated into wells of the 96- or 24-well tissue culture plate with test materials at concentrations of 1.5×10^4, 1.3×10^4, 1.3×10^4, 2.5×10^4 and 3.0×10^4 cells/ml., respectively. They were incubated at 37° C. in a humidified atmosphere of 5% CO2 and 95% air for 72 hours. The cytotoxic activities were determined colorimetrically at 540 nm after staining viable cells with 0.006% neutral red solution.

[3] = test system: HCT-116 (human colon carcinoma) cells; assay: In vitro cytotoxicity; format: cell-based; conditions: 72 hours, 37° C., neutral red, 540 nm
Experimental: as §2

[4] = test system: B16-F10 (murine melanoma) cells; assay: In vitro cytotoxicity; format: cell-based; conditions: Mus musculus, 72 hours, 37° C., neutral red, 540 nm
Experimental: as §2

gram-positive organisms = assay: In vitro antibacterial activity, gram-positive organisms as a group; format: cell-based
Experimental: as §1

[5] = test system: Cryptococcus neoformans D49; assay: In vitro antifungal MIC; format: cell-based
Experimental: (§3) The antifungal MICs of dynemicin C and its triacetate were determined by an agar dilution method on yeast morphology agar adjusted to pH7.0 with 1/15M phosphate buffer. A 5 μl aliquot of fungal suspension containing 10^6 cells/ml was inoculated onto the surface of the antibiotic-containing agar plates with a multiinoculator.

[6] = test system: Candida albicans ATCC 38247; assay: In vitro antifungal MIC; format: cell-based
Experimental: as §3

C. neoformans IAM4514 = assay: In vitro antifungal MIC; format: cell-based, Cryptococcus neoformans
Experimental: as §3

Solubility = format: physicochemical

`COC1=C(C=O)C(C)C23OC24c2cc(O)c5c(c2NC3C#CC=CC#CC14)C(=O)c1c(O)ccc(O)c1C5=O` (centres unmarked) [Dynemicin C] gave an MIC (M. luteus PCI 1001) of 0.0008 µg/mL (≈ 0.00153 µM), an MIC (P. vulgaris IPM-13) of 0.05 µg/mL (≈ 0.0959 µM) and an MIC (P. cepecia A21213) of 0.1 µg/mL (≈ 0.192 µM). It also gave an MIC (P. rettgeri IPM-14) of 0.1 µg/mL (≈ 0.192 µM), an MIC (P. mirabilis IFO 3849) of 0.8 µg/mL (≈ 1.53 µM) and an MIC (M. morganii I510) of 0.1 µg/mL (≈ 0.192 µM). The MIC (X. maltophilia GN12873) was 100 µg/mL (≈ 192 µM), the MIC (P. aeruginosa IPM-9) was 100 µg/mL (≈ 192 µM) and the MIC (P. cepecia No. 651) was 0.1 µg/mL (≈ 0.192 µM). It also gave an MIC (P. aeruginosa A20599) of 100 µg/mL (≈ 192 µM), an MIC (S. aureus IPM-24 (MRSA)) of under 0.0002 µg/mL and an MIC (P. aeruginosa IPM-8) of 100 µg/mL (≈ 192 µM). The MIC (K. pneumoniae PCI 602) was 0.8 µg/mL (≈ 1.53 µM), the MIC (S. epidermidis 11-1230) was under 0.0002 µg/mL and the MIC (S. marcescens IPM-16) was 100 µg/mL (≈ 192 µM). The MIC (E. coli Juhl A15119) was 100 µg/mL (≈ 192 µM), the MIC (X. maltophilia No. 661) was 1.6 µg/mL (≈ 3.07 µM) and the MIC (E. faecalis A9808) was 0.0008 µg/mL (≈ 0.00153 µM). The MIC (P. aeruginosa A9843A) was 100 µg/mL (≈ 192 µM), the MIC (S. aureus smith) was under 0.0002 µg/mL and the MIC (S. marcescens IPM-15) was 25 µg/mL (≈ 47.9 µM). For the same molecule, the MIC (E. faecium A24817) was 0.0008 µg/mL (≈ 0.00153 µM), the MIC (S. aureus A15036 (MRSA)) was under 0.0002 µg/mL and the MIC (P. aeruginosa KKA19) was 100 µg/mL (≈ 192 µM). The MIC (E. coli 255) was 100 µg/mL (≈ 192 µM), the MIC (E. cloacae IPM-12) was 100 µg/mL (≈ 192 µM) and the “activity against Pseudomonas aeruginosa species” value [1] was “did not show any activity”. The “activity against gram-negatives compared with amikacin” value (gram-negative organisms) was “activity better than amikacin”, the “cytotoxic activity compared with dynemicin A” value [2] was “almost the same activity as dynemicin A” and the IC50 [3] was 0.0086 µg/mL (≈ 0.0165 µM). The IC50 [4] was 0.0028 µg/mL (≈ 0.00537 µM), the “activity against gram-positive organisms compared with amikacin” value (gram-positive organisms; comparison in words) was “much better activities against these organisms than amikacin” and the “activity against gram-positive organisms” value (gram-positive organisms; in words) was “strong activity”. For the same molecule, the “activity (compared with amphotericin B and ketoconazole)” value ([5]; Cryptococcus neoformans D49, in words) was “much more active than amphotericin B and ketoconazole”, the MIC ([5]; Cryptococcus neoformans, D49, 40 h, pH 7) was 0.0063 µg/mL (≈ 0.0121 µM) and the “activity compared with ketoconazole” value ([6]; Candida albicans ATCC 38247, amphotericin resistant, in words) was “stronger than that of ketoconazole”. The MIC ([6]; Candida albicans, ATCC38247, 40 h, pH 7) was 0.8 µg/mL (≈ 1.53 µM), the “activity (compared with amphotericin B and ketoconazole)” value (C. neoformans IAM4514; C. neoformans IAM4514, in words) was “much more active than amphotericin B and ketoconazole” and the MIC (C. neoformans IAM4514; Cryptococcus neoformans, IAM4514, 40 h, pH 7) was 0.013 µg/mL (≈ 0.0249 µM). For the same molecule, the “solubility in 1,4-dioxane” value (Solubility; 1,4-dioxane) was “soluble”, the solubility in acetonitrile (Solubility; acetonitrile) was “soluble” and the solubility in dimethylformamide (Solubility; dimethylformamide) was “soluble”. The solubility in dimethylsulfoxide (Solubility; dimethylsulfoxide) was “soluble”, the “solubility in ethyl acetate” value (Solubility; ethyl acetate) was “slightly soluble” and the solubility in methanol (Solubility; methanol) was “slightly soluble”. For the same molecule, the solubility in n-hexane (Solubility; n-hexane) was “practically insoluble” and the solubility in water (Solubility; water) was “practically insoluble”.
